Results published in ChEMBL document CHEMBL4819136, “Design and synthesis of garlic-related unsymmetrical thiosulfonates as potential Alzheimer's disease therapeutics: In vitro and in silico study” (Bioorg Med Chem, 2021).

How the values were obtained:
Cholinesterase = Cholinesterase (Homo sapiens, UniProt P06276); test: Inhibition of human serum BuChE using butyrylthiocholine iodide as substrate preincubated with enzyme for 10 mins followed by substrate addition and measured by Ellman's method; format: cell-free
Acetylcholinesterase [1] = target: T1, Acetylcholinesterase (Homo sapiens, UniProt P22303)
Description: Inhibition of human recombinant AChE using acetylthiocholine iodide as substrate preincubated with enzyme for 10 mins followed by substrate addition and measured by Ellman's method

Acetylcholinesterase [2] = target: T1, Acetylcholinesterase; test: Potency index, ratio of rivastigmine IC50 to test compound IC50 for human recombinant AChE using acetylthiocholine iodide as substrate preincubated with enzyme for 10 mins followed by substrate addition and measured by Ellman's method

T1 sequence (P22303 whole entry): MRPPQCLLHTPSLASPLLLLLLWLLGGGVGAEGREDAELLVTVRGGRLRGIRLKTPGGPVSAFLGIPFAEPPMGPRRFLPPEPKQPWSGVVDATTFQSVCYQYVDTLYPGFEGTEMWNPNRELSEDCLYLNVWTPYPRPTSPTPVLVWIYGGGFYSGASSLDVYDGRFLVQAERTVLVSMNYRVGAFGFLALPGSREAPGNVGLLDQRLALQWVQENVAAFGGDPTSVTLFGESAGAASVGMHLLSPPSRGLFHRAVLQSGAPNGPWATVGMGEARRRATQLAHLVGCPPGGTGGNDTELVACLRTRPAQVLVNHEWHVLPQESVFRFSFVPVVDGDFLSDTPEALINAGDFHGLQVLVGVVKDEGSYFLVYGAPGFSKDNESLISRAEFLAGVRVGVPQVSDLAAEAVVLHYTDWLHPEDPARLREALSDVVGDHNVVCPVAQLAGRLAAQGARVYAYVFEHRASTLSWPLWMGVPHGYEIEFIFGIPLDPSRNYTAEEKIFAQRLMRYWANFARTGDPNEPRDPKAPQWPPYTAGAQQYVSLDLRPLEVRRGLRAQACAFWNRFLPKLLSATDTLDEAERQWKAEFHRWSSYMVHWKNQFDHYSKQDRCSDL
Sequence of Cholinesterase (P06276 whole entry): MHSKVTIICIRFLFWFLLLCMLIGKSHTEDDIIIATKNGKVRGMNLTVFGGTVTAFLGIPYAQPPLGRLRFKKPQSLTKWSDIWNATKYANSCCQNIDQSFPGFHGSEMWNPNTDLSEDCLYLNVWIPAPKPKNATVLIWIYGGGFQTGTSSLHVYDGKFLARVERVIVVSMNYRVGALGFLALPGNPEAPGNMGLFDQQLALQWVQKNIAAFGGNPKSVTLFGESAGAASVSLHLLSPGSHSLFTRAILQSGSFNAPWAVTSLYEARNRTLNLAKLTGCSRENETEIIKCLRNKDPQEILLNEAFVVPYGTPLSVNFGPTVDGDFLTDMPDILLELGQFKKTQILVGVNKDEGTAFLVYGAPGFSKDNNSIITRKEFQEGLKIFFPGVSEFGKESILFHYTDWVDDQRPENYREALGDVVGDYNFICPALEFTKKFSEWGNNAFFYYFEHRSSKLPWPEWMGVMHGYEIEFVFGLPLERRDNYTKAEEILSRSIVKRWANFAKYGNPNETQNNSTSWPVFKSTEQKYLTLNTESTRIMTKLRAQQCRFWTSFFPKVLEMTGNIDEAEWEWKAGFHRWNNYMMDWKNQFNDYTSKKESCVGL

`Cc1ccc(S(=O)(=O)SCc2ccc(OC(F)(F)F)cc2)cc1` showed an IC50 (Cholinesterase) of 53.3 nM, a Ki (Cholinesterase) of 17.5 nM and an IC50 (Acetylcholinesterase [1]) of 129 nM. For the same molecule, the Ki (Acetylcholinesterase [1]) was 198 nM.
In the case of `Cc1ccc(S(=O)(=O)SCc2ccc([N+](=O)[O-])cc2)cc1`, the IC50 (Cholinesterase) is reported as 214 nM, the Ki (Cholinesterase) is reported as 303 nM and the IC50 (Acetylcholinesterase [1]) is reported as 212 nM. It also gave a Ki (Acetylcholinesterase [1]) of 251 nM.
`Cc1ccc(S(=O)(=O)SCc2ccc(C(C)C)cc2)cc1` was tested, and the Ratio IC50 (Acetylcholinesterase [2]) was 5, the IC50 (Cholinesterase) was 84.5 nM and the Ki (Cholinesterase) was 37.9 nM. It also gave an IC50 (Acetylcholinesterase [1]) of 11.9 nM and a Ki (Acetylcholinesterase [1]) of 25.6 nM.
`Cc1ccc(S(=O)(=O)SCc2ccc(C(F)(F)F)cc2)cc1` gave an IC50 (Cholinesterase) of 118 nM, a Ki (Cholinesterase) of 103 nM and an IC50 (Acetylcholinesterase [1]) of 86.6 nM. For the same molecule, the Ki (Acetylcholinesterase [1]) was 148 nM.
With `Cc1ccc(S(=O)(=O)SCc2ccccc2)cc1` the IC50 (Cholinesterase) was 318 nM, the Ki (Cholinesterase) was 218 nM and the IC50 (Acetylcholinesterase [1]) was 517 nM. The Ki (Acetylcholinesterase [1]) was 390 nM.
With `Cc1ccc(S(=O)(=O)SCc2ccc(F)cc2)cc1` the IC50 (Cholinesterase) was 303 nM, the Ki (Cholinesterase) was 208 nM and the IC50 (Acetylcholinesterase [1]) was 313 nM. For the same molecule, the Ki (Acetylcholinesterase [1]) was 327 nM.
Work on `Cc1ccc(S(=O)(=O)SCc2ccc(C#N)cc2)cc1` yielded an IC50 (Cholinesterase) of 203 nM, a Ki (Cholinesterase) of 201 nM and an IC50 (Acetylcholinesterase [1]) of 196 nM. For the same molecule, the Ki (Acetylcholinesterase [1]) was 166 nM.
In the case of `Cc1ccc(S(=O)(=O)SCc2ccc(Cl)cc2)cc1`, the IC50 (Cholinesterase) is reported as 315 nM, the Ki (Cholinesterase) is reported as 199 nM and the IC50 (Acetylcholinesterase [1]) is reported as 478 nM. It also gave a Ki (Acetylcholinesterase [1]) of 714 nM.
Molecule `COc1ccc(CSS(=O)(=O)c2ccc(C)cc2)cc1` has an IC50 (Cholinesterase) of 202 nM, a Ki (Cholinesterase) of 251 nM and an IC50 (Acetylcholinesterase [1]) of 488 nM. It also gave a Ki (Acetylcholinesterase [1]) of 219 nM.
